This note sets out measurements from patent US10117912B2 (priority 2013, dated 2018).

The test system of data set [1] is alkaline phosphatase from bovine intestinal mucosa. The data set is classed as biochemical.
A short description of data set [2]: Equilibrium solubility of phenytoin in assay buffer. The data set is classed as physicochemical. As for the experimental part:
10 mg of phenytoin was added to a 20 mL scintillation vial containing 2 mL assay buffer, pH 7.4 (122 mM NaCl, 25 mM NaHCO3, 10 mM glucose, 10 mM HEPES, 3 mM KCl, 1.2 mM MgSO4, 1.4 mM CaCl2, and 0.4 mM K2HPO4). The vials were placed in a shaker incubator at different temperatures (28, 32 and 37° C.). After 48 h, drug suspension from vial was centrifuged at 13000 g for 20 min. Using a 0.2 μm syringe filter, the supernatant was filtered into a fresh glass vial and analyzed using HPLC. The experiments were performed in triplicate.

The mark [3] stands for this setting: prodrug S=6.1 with 0.6 IU/mL enzyme, 3 h.

In brackets after ≈: the same amount, converted by molar mass. Where two headings read alike, the source gives them in different places.

Usually kcat stands for the maximal rate divided by the concentration of active sites. As a reminder, the Km is the substrate concentration at which the rate is half of its maximum. A word on the solubility: it is how much of the substance goes into solution per volume. A low value points to little dissolved substance.

With `O=C1NC(c2ccccc2)(c2ccccc2)C(=O)N1COP(=O)(O)O` [fosphenytoin, Fosphenytoin disodium], the “membrane integrity (TEER)” value in the data set on MDCKII-wt monolayer (3 h treatment, pH 7.4, 32° C., enzyme alone or prodrug alone at S=0.8 or S=6.1) is listed as “not compromised”. For the same compound, in the data set with MDCKII-wt monolayer (setting [3]), the TEER value is greater than 60 ohms/cm^2 and the “membrane integrity (TEER), prodrug with enzyme” value is “minor compromise of intercellular tight junctions”. Moreover, the kcat in data set [1] came to 2880 s⁻¹. Besides, in data set [1] (fosphenytoin 586 μM, various enzyme concentrations), the “extent of conversion of prodrug to drug” value was “Complete conversion”. Besides, the “Vmax (Michaelis-Menten)” value in data set [1] (pH 7.4) amounted to 51.1 ± 1.8 µM/min. In addition, the Km in data set [1] (pH 7.4, read-out: KM (Michaelis-Menten)) worked out at 828 ± 81.6 µM.
On to `O=C1NC(=O)C(c2ccccc2)(c2ccccc2)N1` [phenytoin], for which the “effect of temperature on solubility” value in data set [2] (28° C. and 37° C., pH 7.4) was “unaffected”. The solubility at 48 h in data set [2] (aqueous buffer, thermodynamic from solid, pH 7.4 and 32° C., assay buffer, 48 h) came to 126 ± 5.6 µM (≈ 31.9 µg/mL).
In the case of alkaline phosphatase, the “membrane integrity (TEER)” value in the data set on MDCKII-wt monolayer (pH 7.4) is given as “not compromised”.
